By IC50 is commonly meant the point on the concentration scale where inhibition reaches its midpoint. A word on the Ki: it is a measure of affinity in units of concentration, obtained from inhibition or displacement.

These results are taken from article PMC9774438, “Effects of Synthetic Short Cationic Antimicrobial Peptides on the Catalytic Activity of Myeloperoxidase, Reducing Its Oxidative Capacity” (Antioxidants, 2022).

In experiment [1] the target is T1, myeloperoxidase (MPO) (Homo sapiens, UniProt P05164).
T1 construct: Native myeloperoxidase (MPO) was obtained from human leukocyte extract by successive chromatography on heparin-Sepharose and phenyl-agarose; from tissue; host or cells: human leukocyte extract
The experiment can be described thus: MPO chlorinating activity (Celestine Blue B assay). The settings on record: for IC50: 0.8 nM MPO heme, 200 μM CB, 150 mM NaCl, 50 μM H2O2, 50 mM Na-acetate pH 5.5, 5 min preincubation. The class given is biochemical. As to the method:
MPO chlorinating activity was evaluated fluorometrically using Celestine Blue B (CB) which was oxidized to fluorescent glycol (λex = 487 nm, λem = 578 nm) by taurine N-chloramine produced in the reaction of taurine with HOCl generated by MPO [39]. The assay was performed in 96-plate format. MPO was preincubated with peptides for 5 min in a volume of 100 μL, with the concentrations being: MPO, 1.6 nM heme and peptide, 16 nM–16 μM. Then, 100 μL aliquots of CB-containing mix (CB, 400 µM; H2O2, 100 µM; taurine, 4 mM; KI, 10 µM; NaCl, 300 mM; 50 mM Na-acetate buffer, pH 5.5) were added to MPO/peptide and to 100 μL of HOCl standards (0–150 μM). The fluorescence measurement was made with a CLARIOstar multimodal plate reader (BMG Labtech, Ortenberg, Germany) at 15 min after the reaction started. Fluorescence intensity detected for HOCl standards of HOCl was used for calculating the chlorinating activity as mole of HOCl per mole of MPO heme per second. To determine the type of CAMP-induced inhibition, KM and Vmax were obtained by varying substrates of MPO: NaCl in a final concentration from 25 to 300 mM, or H2O2 in a final concentration from 5 to 80 µM.
(§1) The Hannes-Wolf plots were made as ([Substrate]/V = f([Substrate]). KM was equal in magnitude to the intercept made on the abscissa axis by the approximating straight line; Vmax was calculated as a reciprocal value of the straight-line slope. The inhibition constant (Ki) for noncompetitive inhibition was calculated as follows: Ki = [I]/((Vmax − Vmax’)/Vmax’); Ki for competitive inhibition was calculated as follows: Ki = [I]/((KM’ − KM)/KM); Ki for mixed inhibition was calculated as follows: Ki = [I]/(((KM’ − KM)/KM)^2 + ((Vmax − Vmax’)/Vmax’))^2)^0.5; and Ki for uncompetitive inhibition was calculated as follows: Ki = [I]/(((KM − KM’)/KM’)^2 + ((Vmax – Vmax’)/Vmax’))^2)^0.5, where [I]—concentration of inhibitor (CAMP), KM—Michaelis constant without inhibitor, Vmax—maximal rate without inhibitor, KM’—Michaelis constant in the presence of inhibitor, Vmax’—maximal rate in the presence of inhibitor.
Chlorinating activity is a distinctive feature of MPO as compared with other peroxidases and it is an important property, enabling MPO to combat microbes. We tested whether the inhibitory effects of pept_1545 and Hm-AMP8 on peroxidase activity extend to MPO chlorinating activity. Chlorinating activity was measured using a fluorometric CB-based assay. To determine the concentration dependence of the effect of CAMPs on MPO chlorinating activity, the 0.008–8 μM concentration range (corresponding to 10–10,000 peptide molecules per heme) was used.

In experiment [2] the target is T1, myeloperoxidase (MPO). Briefly: Measurement of sulfhydryl groups with MPO/H2O2 (DTNB). The settings on record: for free sulfhydryl groups, percentage relative to CAMP + MPO without H2O2: 150 μM peptide, 1 μM MPO heme, 100 μM H2O2, 10 mM Na-phosphate pH 7.4, mean ± SD, * p < 0.05 where marked. The class given is biochemical. How it is done: The peroxidase reaction was carried out in 10 mM Na-phosphate buffer, pH 7.4 (containing 0.2 mM DTPA), in a volume of 60 μl placed in the wells of a 96-well plate. Peptides were added to MPO (1 μM heme) to a concentration of 150 μM. Following 5 min of incubation, H2O2 (100 μM, final) was added to test samples to trigger the reaction. Control samples were the same except H2O2. The content of free sulfhydryl groups was estimated spectrophotometrically by using 5,5′-dithiobis(2-nitrobenzoic acid) (DTNB, Ellman’s reagent) prepared in 0.4 M Tris-HCl buffer, pH 9.0. At a desired time after the reaction was started, 120 μL aliquots of freshly prepared DTNB-containing buffer were added to one part of samples (160 μM DTNB, final) and […] of the buffer without DTNB was added to another part of the same samples. […] Absorbance in the absence of DTNB was subtracted from that in the presence of DTNB. The loss of sulfhydryl groups was expressed as a percentage relative to controls incubated without H2O2.
To determine an estimation of whether the cysteine residue of pept_1545 and Hm-AMP8 participated in MPO-mediated reactions, we compared the content of free sulfhydryl groups in the reaction mixtures of peptides (150 μM) with the MPO/H2O2 system (1 μM heme, 100 μM H2O2) and control samples containing peptides plus MPO with no added H2O2. Measurements of sulfhydryl groups were made at 5 min and 90 min of incubation (Table 2).

For experiment [3], the target named is T1, myeloperoxidase (MPO). The experiment can be described thus: MPO peroxidase activity (Amplex Red assay). The format is biochemical. The settings on record: for IC50: 50 μM Amplex Red, 25 μM H2O2, 50 mM K-phosphate pH 7.4, 5 min preincubation; for Ki: 20 μM pept_1545 or 2 μM Hm-AMP8, 50 mM K-phosphate pH 7.4, Hanes–Woolf. How it is done:
MPO peroxidase activity was evaluated fluorometrically using Amplex Red^TM reagent which was oxidized by MPO to the fluorescent resorufin (λex = 530 nm, λem = 590 nm). The assay was performed in 96-plate format. The final reaction mixture in 50 mM K-phosphate buffer (pH 7.4) was as follows: MPO, 8 nM heme; peptide, […]; H2O2, 25 μM; Amplex Red reagent, 50 μM. MPO was preincubated with peptides for 5 min in a volume of 100 μl. Then, Amplex Red was added, and the enzymatic reaction was initiated by adding H2O2 (a final probe volume of 200 μL per well). The fluorescence measurement was made with a CLARIOstar multimodal plate reader (BMG Labtech, Ortenberg, Germany) at 5 min after the beginning of the reaction. To determine the type of CAMP-induced inhibition, KM and Vmax were obtained by varying substrates of MPO: Amplex Red in a final concentration from 1 to 62.5 μM, or H2O2 in a final concentration from 0.625 to 20 μM.
as §1
From the experiments with varying concentrations of H2O2 (0.01–200 μM) and Amplex Red (6.25–100 μM), the optimal concentrations of 25 μM H2O2 and 50 μM Amplex Red were chosen for further work. The 0.8–50 μM concentration range (corresponding to 100–6250 peptide molecules per heme) was used to determine the concentration dependence of the effect of CAMPs on peroxidase activity of MPO.

Experiment [4] deals with MPO. To be noted: cited from earlier work; for peroxidase substrate behaviour of free amino acid: literature statement. The source says: Free tyrosine is known to be a peroxidase substrate, reacting rapidly with both Compounds I and II. […] MPO-catalyzed oxidation of tyrosine occurs in the absence as well as presence of chloride, which is accompanied by hastened HOCl production. […] In addition to cysteine, pept_1545 contains tryptophan, another redox active amino acid. […] Fluorescence measurements (λex = 290 nm, λem = 310–450 nm) were ...

For experiment [5], the system named is MPO. To be noted: MPO/H2O2 system; ref [57]; cited from earlier work.
The mark [6] stands for this setting: 8 μM pept_1545 or 0.8 μM Hm-AMP8, 25–300 mM NaCl, 50 μM H2O2, 0.8 nM MPO, 50 mM Na-acetate pH 5.5, Hanes–Woolf, read-out: Inhibition constant (Ki) towards Cl−.
The mark [7] stands for this setting: Ki towards H2O2 and Cl– (abstract, range over both substrates), chlorinating activity, pH 5.5.
Where [8] appears, read: 0.625–20 μM H2O2, 50 μM Amplex Red, 8 nM MPO heme, read-out: Inhibition constant (Ki) towards H2O2, peroxidase activity.
The mark [9] stands for this setting: 1–62.5 μM Amplex Red, 25 μM H2O2, 8 nM MPO heme, read-out: Inhibition constant (Ki) towards Amplex Red.

Values joined by “and” are separate entries in the source; they are usually repeats but may differ in a detail not shown here. Equal values may be shown once. Read-outs that look alike come from different tables or passages of the source. Where a SMILES comes first, the peptide text is derived from it.

T1 sequence (P05164 279-745 limits assumed): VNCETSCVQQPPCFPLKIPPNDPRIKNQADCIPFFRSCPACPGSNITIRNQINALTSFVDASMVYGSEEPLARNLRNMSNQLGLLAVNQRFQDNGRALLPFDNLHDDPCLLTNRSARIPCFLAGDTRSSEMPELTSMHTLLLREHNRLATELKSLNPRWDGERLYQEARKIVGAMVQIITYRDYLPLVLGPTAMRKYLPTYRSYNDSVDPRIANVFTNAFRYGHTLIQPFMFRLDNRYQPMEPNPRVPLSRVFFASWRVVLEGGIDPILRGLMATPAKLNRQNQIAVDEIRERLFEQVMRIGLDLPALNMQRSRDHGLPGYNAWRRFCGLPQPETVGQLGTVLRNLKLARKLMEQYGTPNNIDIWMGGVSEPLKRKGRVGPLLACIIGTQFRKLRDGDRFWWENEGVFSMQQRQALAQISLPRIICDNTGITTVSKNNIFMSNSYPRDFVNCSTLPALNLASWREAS
T1 sequence (P05164 165-273 limits assumed): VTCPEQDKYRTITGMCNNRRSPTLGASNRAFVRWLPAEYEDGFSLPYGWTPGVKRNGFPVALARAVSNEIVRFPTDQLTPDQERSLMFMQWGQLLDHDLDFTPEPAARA

Turning to `CC[C@H](C)[C@H](NC(=O)[C@H](C)NC(=O)[C@H](CC(N)=O)NC(=O)[C@H](Cc1ccc(O)cc1)NC(=O)[C@@H]1CCCN1C(=O)[C@@H](NC(=O)[C@H](CCCCN)NC(=O)[C@H](Cc1ccc(O)cc1)NC(=O)[C@@H](NC(=O)[C@@H](NC(=O)[C@H](C)NC(=O)[C@@H](N)CCCNC(=N)N)C(C)C)[C@@H](C)CC)[C@@H](C)CC)C(=O)N[C@@H](C)C(=O)N[C@@H](CO)C(=O)N[C@@H](CCCNC(=N)N)C(=O)N[C@@H](Cc1c[nH]c2ccccc12)C(=O)N[C@H](C(=O)N[C@H](C(=O)N[C@@H](C)C(=O)N1CCC[C@H]1C(=O)N[C@@H](CCCCN)C(=O)N[C@@H](CCCCN)C(=O)N[C@@H](CS)C(N)=O)[C@@H](C)CC)[C@@H](C)CC` [Hm-AMP8] (H-RAVIYKIPYNAIASRWIIAPKKC-NH2), the half-inhibitory concentration (IC50) is 300 nM against myeloperoxidase (MPO) [1]; 1700 nM and 2000 nM against myeloperoxidase (MPO) [3] (8 nM MPO heme). Besides, the Ki is 280 nM on myeloperoxidase (MPO) [1] (8 μM pept_1545 or 0.8 μM Hm-AMP8, 5–80 μM H2O2, 150 mM NaCl, 0.8 nM MPO, 50 mM Na-acetate pH 5.5, Hanes–Woolf, read-out: Inhibition constant (Ki) towards H2O2, chlorinating activity); 420 nM on myeloperoxidase (MPO) [1] (setting [6]); 300 to 400 nM at myeloperoxidase (MPO) [1] (setting [7]); 1790 nM on myeloperoxidase (MPO) [3] (setting [8]); 1100 nM on myeloperoxidase (MPO) [3] (setting [9]). Besides, the “free sulfhydryl groups, percentage relative to CAMP + MPO without H2O2” value on myeloperoxidase (MPO) [2] (5 min incubation) was 93 ± 5%; at myeloperoxidase (MPO) [2] (90 min incubation), “* 79 ± 6%”.
`N[C@@H](CS)C(=O)O` [cysteine]: in the experiment with MPO [4] (free cysteine, ref [50]), the “bimolecular rate constant for reaction with Compound I” value was 4100 M⁻¹ s⁻¹ and the “bimolecular rate constant for reaction with Compound II” value is below 10 M⁻¹ s⁻¹. Also, the “peroxidase substrate behaviour of free amino acid” value in the experiment on MPO [4] is given as “poor peroxidase substrate”.
As for `CC[C@H](C)[C@H](NC(=O)[C@H](C)NC(=O)[C@H](CCCCN)NC(=O)CNC(=O)[C@@H](NC(=O)[C@H](CC(C)C)NC(=O)[C@@H](N)Cc1ccccc1)[C@@H](C)CC)C(=O)N[C@@H](CCCCN)C(=O)N[C@@H](CCCNC(=N)N)C(=O)N[C@@H](CCCCN)C(=O)N[C@@H](Cc1ccccc1)C(=O)N[C@@H](CS)C(=O)N[C@@H](CC(C)C)C(=O)N[C@@H](CCCNC(=N)N)C(=O)N[C@@H](CO)C(=O)N[C@H](C(=O)N[C@@H](Cc1c[nH]c2ccccc12)C(=O)N[C@@H](CC(N)=O)C(=O)N[C@@H](C)C(N)=O)C(C)C` [pept_1545] (H-FLIGKAIKRKFCLRSVWNA-NH2), the IC50 stood at 7400 nM against myeloperoxidase (MPO) [1] and 11200 nM on myeloperoxidase (MPO) [3] (8 nM MPO heme). The Ki at myeloperoxidase (MPO) [1] (setting [6]) was 19500 nM; at myeloperoxidase (MPO) [1] (setting [7]), 11000 to 20000 nM; at myeloperoxidase (MPO) [3] (setting [8]), 52800 nM; on myeloperoxidase (MPO) [3] (setting [9]), 48300 nM. Further, on myeloperoxidase (MPO) [2] (5 min incubation with MPO/H2O2), the “decrease in amount of –SH groups” value is recorded as “about 20%”. In addition, the “free sulfhydryl groups, percentage relative to CAMP + MPO without H2O2” value on myeloperoxidase (MPO) [2] (5 min incubation) was “* 80 ± 4%”; on myeloperoxidase (MPO) [2] (90 min incubation), “* 76 ± 5%”.
Consider `N[C@@H](Cc1c[nH]c2ccccc12)C(=O)O` [tryptophan], for which the “peroxidase substrate behaviour of free amino acid” value in the experiment on MPO [4] is “poor peroxidase substrate”.
For the molecule `N[C@@H](Cc1ccc(O)cc1)C(=O)O` [tyrosine], in the experiment with MPO [4] (free tyrosine, ref [42]), the “bimolecular rate constant for reaction with Compound I” value was 770000 M⁻¹ s⁻¹ and the “bimolecular rate constant for reaction with Compound II” value was 16000 M⁻¹ s⁻¹. The “peroxidase substrate behaviour of free amino acid” value in the experiment on MPO [4] is reported as “accelerates MPO turnover”.
Turning to “N-acetyl lysyltyrosylcysteine amide [KYC]”, in the experiment on MPO [5], the formation of dityrosine entry is reported as “formation of dityrosine only by KYS”; the “oxidation of tyrosine residues by MPO” value is “MPO oxidized tyrosine residues in both KYC and KYS”.
On to N-acetyl lysyltyrosylserine amide [KYS], for which, in the experiment with MPO [5], the formation of dityrosine result was “formation of dityrosine only by KYS”; the “oxidation of tyrosine residues by MPO” value is “MPO oxidized tyrosine residues in both KYC and KYS”.
